Assay results as given in EPA's ToxValDB 9.5.

Columns and labels:
[1] = tested on: Rattus norvegicus; conditions: oral
[2] = tested on: Rattus norvegicus; conditions: oral, gavage; for LOAEL / NOAEL: Sprague-Dawley
[3] = subchronic, gavage, M, Sprague-Dawley
[4] = subchronic, gavage, M, Sprague-Dawley, Clinical Observation: Salivation + Body Weight Changes: Gain increase + Food Consumption: increase + Hematology: Plt increase, Eosinophil% …
[5] = subchronic, gavage, M, Sprague-Dawley, Clinical Observation: Excessive salivation Decreased spontaneous locomotors Decreased respiration rate Incomplete eyelid opening + …
[6] = short-term, duration: 28 days, gavage, M, Sprague-Dawley, Clinical Observation: Yellow-orange urine SalivationSpontaneous locomotion decrease, Respiratory rate decrease, Soft stool + Body Weight …
[7] = short-term, duration: 28 days, gavage, F, Sprague-Dawley, Functional Observational Battery: Locomotor activity decrease
[8] = short-term, duration: 28 days, gavage, M, Sprague-Dawley, Functional Observational Battery: Locomotor activity decrease
[9] = reproduction developmental, duration: 4 weeks, M, Rjhan:SD, generation: P0, P0: Whole Body: Clinical Observations
[10] = reproduction developmental, duration: 4 weeks, M, generation: P0, P0: General Toxicity: Whole Body: Body Weight + P0: General Toxicity: Whole Body: Clinical Observations + P0: General Toxicity: Whole Body: …
[11] = reproduction developmental, duration: 6 weeks, F, Rjhan:SD, generation: P0, P0: Whole Body: Clinical Observations
[12] = reproduction developmental, duration: 54 days, F, generation: P0, P0: General Toxicity: Whole Body: Body Weight + P0: General Toxicity: Whole Body: Clinical Observations + P0: General Toxicity: Whole Body: …

O=S(=O)(O)c1cc(Cl)cc(N=Nc2ccc3c(O)cccc3c2O)c1[O-].[Na+] gave an NOEL ([1]; short-term, duration: 28 days, gavage, M/F, Crl:CD(SD), Deaths + Clinical Observation: Loose stool Locomotor activity increase + Body Weight Changes: decrease + Water Consumption: increase + …) of less than 40 mg/kg-day.
COc1cccc(OC)c1C(=O)P(=O)(CC(C)CC(C)(C)C)C(=O)c1c(OC)cccc1OC (stereo not drawn) was tested, and the NOEL ([1]; short-term, duration: 28 days, gavage, M/F, Blood Chemistry: CHE decrease + Absolute Organ Weight: Liver increase + Histopathology: Skin-Proliferation, epidermis, horny layer Skin-…) was 5 mg/kg-day.
CC1(C)C(C=CC(=O)OC(C(F)(F)F)C(F)(F)F)C1C(=O)OC(C#N)c1cccc(Oc2ccccc2)c1 (stereo not drawn) gave an NOEL ([1]; short-term, duration: 28 days, gavage, M/F, Deaths + Clinical Observation: Salivation + Urinalysis: Specific gravity decrease, pH decrease + Blood Chemistry: GPT increase, BUN …) of less than 5 mg/kg-day.
With COc1c(N2CCNC(C)C2)c(F)cc2c(=O)c(C(=O)O)cn(C3CC3)c12.O (stereo not drawn) the NOAEL ([1]; chronic, duration: 182 days, gavage, M/F, Wistar, Clinical Observation: Loss of increaseper incisor + Body Weight Changes: decrease + Urinalysis: Ca increase + Hematology: SEG decrease, …) was 30 mg/kg-day.
In the case of CCn1cc(C(=O)O)c(=O)c2cc(F)c(N3CCNCC3)nc21.CCn1cc(C(=O)O)c(=O)c2cc(F)c(N3CCNCC3)nc21.CCn1cc(C(=O)O)c(=O)c2cc(F)c(N3CCNCC3)nc21.O.O, the NOEL ([1]; short-term, duration: 28 days, gavage, M/F, Sprague-Dawley, Clinical Observation: Loose stool + Body Weight Changes: Body weight gain decrease + Food Consumption: decrease + Urinalysis: White crystal…) is reported as 120 mg/kg-day.
CCOCCc1ccc(OCC(OC)OC)c(C)c1C gave an NOEL ([1]; short-term, duration: 28 days, gavage, M/F, Clinical Observation: Salivation Locomotor activity decrease + Blood Chemistry: GOT increase, GPT increase, gamma-GTP increase, T-CHO …) of less than 40 mg/kg-day.
With O=[N+]([O-])c1cc(Cl)c(/N=N/c2ccc3c(c2)c2ccccc2n3CCO)c(Cl)c1 the NOEL ([1]; short-term, duration: 28 days, gavage, M/F, Body Weight Changes: Body weight gain decrease + Food Consumption: decrease + Water Consumption: increase + Urinalysis: Urine volume …) was 140 mg/kg-day.
With CCCC[B-](c1ccccc1)(c1ccccc1)c1ccccc1.CCN(CC)c1ccc(C(=C/C=C/C(=C2C=CC(=[N+](CC)CC)C=C2)c2ccc(N(CC)CC)cc2)c2ccc(N(CC)CC)cc2)cc1 the NOEL ([1]; short-term, duration: 28 days, gavage, M/F, Blood Chemistry: GPT increase, Ch E decrease + Organ Weight: Kidney decrease, Adrenal decrease + Necropsy: Adrenal- Reddish brown + …) was 30 mg/kg-day.
Work on CC(O)C(=O)[O-].[Na+] (racemic) [Sodium DL-lactate] yielded an NOEL ([1]; subchronic, duration: 42 days, gavage, M, CD(SD), Thyroid Hormone: T4 increase, TSH increase + Histopathology: Stomach-Hyperplasia, squamous, limiting ridge) of 100 mg/kg-day.
Compound O=S(=O)(c1cc(Br)c(OCC(Br)CBr)c(Br)c1)c1cc(Br)c(OCC(Br)CBr)c(Br)c1 (stereo not drawn) [1,1'-Sulfonylbis[3,5-dibromo-4-(2,3-dibromopropoxy)benzene]] has an NOAEL [1, 3] of 1000 mg/kg-day and an NOEL [1, 3] of 1000 mg/kg-day.
Work on CC(C)(O)C(Cl)(Cl)Cl [1,1,1-Trichloro-2-methyl-2-propanol] yielded an NOEL ([1]; subchronic, gavage, M, Sprague-Dawley, Clinical Observation: Staggering gait + Functional Observational Battery: Grip strength decrease, Locomotor activity decrease + Food …) of less than 10 mg/kg-day.
With CN(C)CCN(C)CCN(C)C [1,1,4,7,7-Pentamethyldiethylenetriamine] the NOEL ([1]; subchronic, gavage, M, Sprague-Dawley, Body Weight Changes: decrease200 + Blood Chemistry: Alb decrease, IP increase + Relative Organ Weight: Liver increase + Histopathology: "…) was 40 mg/kg-day.
Work on c1ccc2n[nH]nc2c1 [1,2,3-Benzotriazole] yielded an NOEL ([1]; subchronic, gavage, M, Sprague-Dawley, Blood Chemistry: AST increase, ALT increase, TP decrease, A/G increase, PL increase, K increase) of less than 30 mg/kg-day.
Work on Clc1ccccc1NNc1ccccc1Cl [1,2-Bis(2-chlorophenyl)hydrazine] yielded an NOEL ([1]; subchronic, gavage, M, Sprague-Dawley, Body Weight Changes: decrease(trend) + Hematology: Hgb decrease, RET increase(trend) + Blood Chemistry: T-CHO increase(trend) + Relative …) of 40 mg/kg-day.
With CC(C)(C)c1cc(C(C)(C)C)cc(C(C)(C)C)c1 [1,3,5-Tri-tert-butylbenzene] the LOAEL [1, 4] was 50 mg/kg-day, the LOEL [1, 4] was 50 mg/kg-day and the NOAEL [1, 4] was 10 mg/kg-day. The NOEL [1, 4] was 10 mg/kg-day.
With Nc1ccc(Oc2cccc(Oc3ccc(N)cc3)c2)cc1 [1,3-Phenylenedi(4-aminophenyl ether)] the NOEL ([1]; short-term, duration: 28 days, gavage, M/F, Deaths + Clinical Observation: Piloerection Abnormal distention Lethargy Loss of hair + Body Weight Changes: Weight gain decrease + Food …) was 10 mg/kg-day.
SCC1CSC(CS)CS1 (stereo not drawn) [1,4-Dithiane-2,5-dimethanethiol] gave an NOEL ([1]; short-term, duration: 28 days, gavage, M/F, Clinical Observation: Salivation Ataxic gait Locomotor activity decrease + Body Weight Changes: Body weight gain decrease + Food Consumption…) of 20 mg/kg-day.
Compound CC(C)(C)Oc1ccc(Cl)cc1 [1-Chloro-4-tert-butoxybenzene] has an NOAEL [1, 5] of 100 mg/kg-day and an NOEL [1, 5] of 20 mg/kg-day.
CCCCCCCCCCCCCCCCCCCCCCN(C)C [1-Docosanamine, N,N-dimethyl-] gave an NOEL ([1]; subchronic, gavage, M, Sprague-Dawley, Body Weight Changes: decrease + Blood Chemistry: AST increase, ALT increase, Alb increase, A/G increase, ALP decrease + Necropsy: Mesentric …) of 0.5 mg/kg-day.
Work on C=COCC(CC)CCCC (stereo not drawn) [1-Ethenoxy-2-ethylhexane] yielded an NOEL ([1]; short-term, duration: 28 days, gavage, M/F, Sprague-Dawley, Urinalysis: Occult blood increase + Blood Chemistry: ALP increase, Cho increase, PL increase + Relative Organ Weight: Liver increase, …) of 8 mg/kg-day.
Compound COc1ccccc1[N+](=O)[O-] [1-Methoxy-2-nitrobenzene] has an NOAEL [1, 6] of 80 mg/kg-day, an NOEL [1, 6] of 80 mg/kg-day and an NOEL ([1]; subchronic, duration: 13 weeks, diet, M/F, Fischer 344, Deaths + Body Weight Changes: decrease + Food Consumption: decrease + Hematology: Ret increase, Hct decrease, Hgb decrease, RBC decrease, …) of less than 19.2 mg/kg-day.
For C=CCCCCCC [1-Octene], the NOEL ([1]; subchronic, duration: 90 days, gavage, M/F, Urinalysis: Volume increase + Blood Chemistry: Cl decrease, CRE increase + Absolute Organ Weight: Kidney increase + Relative Organ Weight: …) was 50 mg/kg-day.
In the case of O=C1C(Cl)=C(Cl)C(=O)N1Cc1ccccc1 [1-benzyl-3,4-dichloro-1H-pyrrole-2,5-dione], the NOEL ([1]; short-term, duration: 28 days, gavage, M/F, Clinical Observation: Salivation + Body Weight Changes: Body weight gain decrease + Blood Chemistry: TG decrease, GLU decrease + Organ …) is reported as 40 mg/kg-day.
In the case of O=C1NC(=O)c2c(Cl)c(Cl)c(Cl)c(Cl)c21 [1H-Isoindole-1,3(2H)-dione, 4,5,6,7-tetrachloro-], the LOEL [1, 7] is reported as 1000 mg/kg-day, the NOEL [1, 7] is reported as 300 mg/kg-day and the LOEL [1, 8] is reported as 1000 mg/kg-day. It also gave an NOEL [1, 8] of 300 mg/kg-day.
CC(C)=CCl [2,2-Dimethylvinyl chloride] showed an NOEL ([1]; subchronic, duration: 13 weeks, gavage, M/F, Fischer 344, Deaths + Clinical Observation: Rough hair Inactivity Perianal wetness + Body Weight Changes: decrease + Histopathology: Liver/periportal-…) of 125 mg/kg-day.
C=C(F)C(F)(F)C(F)(F)C(F)F [2,3,3,4,4,5,5-Heptafluoro-1-pentene] showed an NOEL ([1]; short-term, duration: 28 days, gavage, M/F, Deaths + Clinical Observation: Salivation Locomotor activity decrease, Whitish discoloration of tooth Bradypnea Reddening of extremity and …) of 8 mg/kg-day.
O=C(c1ccc(O)cc1)c1ccc(O)c(O)c1O [2,3,4,4'-Tetrahydroxybenzophenone] was tested, and the NOEL ([1]; subchronic, duration: 42 days, gavage, M, CD(SD), Clinical Observation: Salivation + Functional Observational Battery: Hind limb grip strength decrease + Body Weight Changes: Weight gain …) was less than 100 mg/kg-day.
With CC(=O)C(C)=O [2,3-Butanedione] the NOEL ([1]; subchronic, duration: 90 days, gavage, M/F, CFE, Body Weight Changes: decrease + Water Consumption: increase + Hematology: HGB decrease, HCT decrease, RET increase, WBC increase, NEUT …) was 90 mg/kg-day.
For O=S(=O)(O)C(F)(F)F [Trifluoromethanesulfonic acid], the LOAEL ([2]; developmental, duration: 54 days, M/F, generation: F1, F1: Developmental: Whole Body: Dams with Liveborn Pups + F1: Developmental: Whole Body: Lactation Index + F1: Developmental: Whole Body: …) was 300 mg/kg-day, the NEL ([2]; reproduction developmental, duration: 4 weeks, M, Rjhan:SD, generation: P0, P0: Multi-organ: Histopathology, Unspecified + P0: Multi-organ: Organ Weights, Unspecified + P0: Whole Body: Body Weight, Absolute + P0: …) was 1000 mg/kg-day and the LEL [2, 9] was 300 mg/kg-day. The NEL [2, 9] was 100 mg/kg-day, the LOAEL [2, 10] was 300 mg/kg-day and the NOAEL [2, 10] was 100 mg/kg-day. The NOAEL ([2]; reproduction developmental, duration: 4 weeks, M, generation: P0, P0: Whole Body: Whole Body: Histopathology, Unspecified) was 1000 mg/kg-day, the NEL ([2]; reproduction developmental, duration: 6 weeks, F, Rjhan:SD, generation: P0, P0: Multi-organ: Histopathology, Unspecified + P0: Multi-organ: Organ Weights, Unspecified + P0: Ovary: Corpora Lutea + P0: Uterus: …) was 1000 mg/kg-day and the LEL [2, 11] was 1000 mg/kg-day. For the same compound, the NEL [2, 11] was 300 mg/kg-day, the NEL ([2]; reproduction developmental, duration: 6 weeks, M/F, Rjhan:SD, generation: F1, F1: Whole Body: Body Weight, Absolute + F1: Whole Body: Clinical Observations + F1: Whole Body: Dams with Liveborn Pups + F1: Whole Body: …) was 1000 mg/kg-day and the LOAEL ([2]; reproduction developmental, duration: 54 days, F, generation: P0, P0: Developmental: Uterus: Implantation + P0: Developmental: Uterus: Post-Implantation Loss + P0: Developmental: Uterus: Pre-Implantation …) was 300 mg/kg-day. The LOAEL [2, 12] was 300 mg/kg-day, the NOAEL [2, 12] was 100 mg/kg-day and the NEL ([2]; short-term, duration: 28 days, F, Crj:CD, Adrenal: Adrenal Gland Weight, Absolute + Adrenal: Adrenal Gland Weight, Absolute, Recovery + Adrenal: Adrenal Gland Weight, Relative + …) was 1000 mg/kg-day. It also gave an LEL ([2]; short-term, duration: 28 days, F, Crj:CD, Blood: Platelet Count (PLT) + Blood: Total Protein (TP), Blood + Forestomach: Boundary Ridge Protrusion + Kidney: Pyelectasis + Stomach: …) of 1000 mg/kg-day, an NEL ([2]; short-term, duration: 28 days, F, Crj:CD, Blood: Platelet Count (PLT) + Blood: Total Protein (TP), Blood + Forestomach: Boundary Ridge Protrusion + Stomach: Glandular Stomach, …) of 200 mg/kg-day and an NEL ([2]; short-term, duration: 28 days, M, Crj:CD, Adrenal: Adrenal Gland Weight, Absolute + Adrenal: Adrenal Gland Weight, Absolute, Recovery + Adrenal: Adrenal Gland Weight, Relative + …) of 1000 mg/kg-day. For the same compound, the LEL ([2]; short-term, duration: 28 days, M, Crj:CD, Blood: Albumin/Globulin (A/G) Ratio, Recovery + Blood: Calcium (CA), Recovery, Blood + Blood: Chloride (CL), Recovery, Blood + Forestomach: …) was 1000 mg/kg-day and the NEL ([2]; short-term, duration: 28 days, M, Crj:CD, Forestomach: Boundary Ridge Protrusion) was 200 mg/kg-day.
